Results: article PMC6961345 (Antiviral Chemistry & Chemotherapy, 2018)
Where “and” joins values, the source holds several entries; their conditions need not be identical. Identical values can stand only once.

System: A/Georgia/20/2006 (H1N1) H275Y
Type: cell-based, influenza A virus

For `C[n+]1ccc(C(=O)NCc2ccccc2)cc1` [enisamium, N-methyl-4-benzylcarbamidopyridinium], the EC90 was 144 µM and 286 µM.
